Measurements taken from patent US20250282794A1 (CURADEV PHARMA LTD, priority 2022, published 2025).

target: recombinant full length HPK-1 enzyme (Homo sapiens (Human), UniProt Q92918); experiment: HPK-1 biochemical enzyme assay (ADP-Glo kinase inhibition); conditions: recombinant full length HPK-1 6.8 nM, 10 μM ATP, 12.5 μM MBP, 30 mins at 25° C.
Procedure: HPK-1 biochemical enzyme assay
Compound inhibitory potency was measured in an HPK-1 kinase inhibition assay. Briefly, recombinant full length HPK-1 enzyme (6.8 nM) was incubated with 10 μM ATP and 12.5 μM swine myelin basic protein (MBP) for 30 mins. at 25° C. in the presence of various concentrations of test compound or vehicle in 40 mM Tris.Cl pH7.4 buffer containing 20 mM MgCl2, 50 μM DTT and 0.1 mg/mL BSA. Reactions were quenched and reaction mixtures were then analyzed by an ADP-Glo kit which measures the formed ADP. The percent inhibition was calculated from the substrate conversion considering no enzyme control reactions for 100% inhibition and vehicle only reactions for 0% inhibition. The compounds were dissolved in DMSO and evaluated at 10 concentrations to determine an IC50 value.
In the below table A denotes an HPK-1 IC50≤10 nM, B denotes an HPK-1 IC50>10 nM but≤100 nM and C denotes an HPK-1 IC50>100 nM but≤1000 nM.

Chain of recombinant full length HPK-1 enzyme (Q92918 whole entry, species assumed): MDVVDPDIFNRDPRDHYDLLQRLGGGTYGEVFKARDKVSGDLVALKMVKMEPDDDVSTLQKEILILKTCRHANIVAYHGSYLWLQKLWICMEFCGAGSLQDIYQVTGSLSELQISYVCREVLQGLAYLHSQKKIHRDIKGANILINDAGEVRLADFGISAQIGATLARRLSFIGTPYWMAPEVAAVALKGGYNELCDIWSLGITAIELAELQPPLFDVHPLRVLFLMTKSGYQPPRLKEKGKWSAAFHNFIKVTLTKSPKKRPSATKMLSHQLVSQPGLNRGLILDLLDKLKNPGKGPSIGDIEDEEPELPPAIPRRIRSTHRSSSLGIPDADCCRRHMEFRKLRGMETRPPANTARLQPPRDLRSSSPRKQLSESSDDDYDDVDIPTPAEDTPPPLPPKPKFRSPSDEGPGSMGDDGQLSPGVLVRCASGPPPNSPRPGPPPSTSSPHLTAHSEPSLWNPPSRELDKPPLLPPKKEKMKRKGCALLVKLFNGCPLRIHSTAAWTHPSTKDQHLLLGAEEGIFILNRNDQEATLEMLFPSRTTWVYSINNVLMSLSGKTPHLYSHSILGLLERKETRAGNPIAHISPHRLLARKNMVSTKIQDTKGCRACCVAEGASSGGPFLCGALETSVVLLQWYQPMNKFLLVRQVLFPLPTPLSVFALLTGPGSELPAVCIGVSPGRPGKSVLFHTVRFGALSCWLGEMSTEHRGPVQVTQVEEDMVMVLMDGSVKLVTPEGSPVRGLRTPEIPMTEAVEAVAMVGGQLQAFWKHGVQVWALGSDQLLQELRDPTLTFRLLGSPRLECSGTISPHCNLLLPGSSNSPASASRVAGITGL

Compound	IC50
Cc1c(Nc2cc[nH]c(=O)c2C(=O)Nc2ccc(N3CCN(C(=O)N(C)C)CC3)cc2)cnc2c1NCC(C)O2 (stereo not shown) [Example 182, 4-(4-(4-((3,8-dimethyl-2,3-dihydro-1H-pyrido[2,3-b][1,4]oxazin-7-yl)amino)-2-oxo-1,2-dihydropyridine-3-carboxamido)phenyl)-N,N-dimethylpiperazine-1-carboxamide]	≤ 10 nM
Cc1c(Nc2cc[nH]c(=O)c2C(=O)Nc2ccc(N3CCN(C(C)C)CC3)c(F)c2)cnc2c1NCC(C)O2 (stereo not shown) [Example 183, 4-((3,8-dimethyl-2,3-dihydro-1H-pyrido[2,3-b][1,4]oxazin-7-yl)amino)-N-(3-fluoro-4-(4-isopropylpiperazin-1-yl)phenyl)-2-oxo-1,2-dihydropyridine-3-carboxamide]	≤ 10 nM
Cc1c(Nc2cc[nH]c(=O)c2C(=O)Nc2ccc(C3CC(=O)N(C)C3)cc2)cnc2c1NCCO2 (stereo not shown) [Example 184, 4-((8-methyl-2,3-dihydro-1H-pyrido[2,3-b][1,4]oxazin-7-yl)amino)-N-(4-(1-methyl-5-oxopyrrolidin-3-yl)phenyl)-2-oxo-1,2-dihydropyridine-3-carboxamide]	≤ 10 nM
COCCN1CCN(c2ccc(NC(=O)c3c(Nc4cnc5c(c4C)NCC(C)O5)cc[nH]c3=O)cc2F)CC1 (stereo not shown) [Example 185, 4-((3,8-dimethyl-2,3-dihydro-1H-pyrido[2,3-b][1,4]oxazin-7-yl)amino)-N-(3-fluoro-4-(4-(2-methoxyethyl)piperazin-1-yl)phenyl)-2-oxo-1,2-dihydropyridine-3-carboxamide]	≤ 10 nM
Cc1c(Nc2cc[nH]c(=O)c2C(=O)Nc2ccc(N3CCN(CCO)CC3)c(F)c2)cnc2c1NCC(C)O2 (stereo not shown) [Example 186, 4-((3,8-dimethyl-2,3-dihydro-1H-pyrido[2,3-b][1,4]oxazin-7-yl)amino)-N-(3-fluoro-4-(4-(2-hydroxyethyl)piperazin-1-yl)phenyl)-2-oxo-1,2-dihydropyridine-3-carboxamide]	≤ 10 nM
Cc1c(Nc2cc[nH]c(=O)c2C(=O)Nc2ccc(N3CCN(C4CCCC4)CC3)cc2)cnc2c1NCC(C)O2 (stereo not shown) [Example 187, N-(4-(4-cyclopentylpiperazin-1-yl)phenyl)-4-((3,8-dimethyl-2,3-dihydro-1H-pyrido[2,3-b][1,4]oxazin-7-yl)amino)-2-oxo-1,2-dihydropyridine-3-carboxamide]	≤ 10 nM
CCC1CNc2c(ncc(Nc3cc[nH]c(=O)c3C(=O)Nc3ccc(N4CCN(C)CC4)cc3)c2C)O1 (stereo not shown) [Example 188, 4-((3-ethyl-8-methyl-2,3-dihydro-1H-pyrido[2,3-b][1,4]oxazin-7-yl)amino)-N-(4-(4-methylpiperazin-1-yl)phenyl)-2-oxo-1,2-dihydropyridine-3-carboxamide]	10 to 100 nM
Cc1c(Nc2cc[nH]c(=O)c2C(=O)Nc2ccc(N3CCN(C)CC3)cc2)cnc2c1NCC(C(C)C)O2 (stereo not shown) [Example 189, 4-((3-isopropyl-8-methyl-2,3-dihydro-1H-pyrido[2,3-b][1,4]oxazin-7-yl)amino)-N-(4-(4-methylpiperazin-1-yl)phenyl)-2-oxo-1,2-dihydropyridine-3-carboxamide]	10 to 100 nM
Cc1c(Nc2cc[nH]c(=O)c2C(=O)Nc2ccc(N3CCN(C)CC3)cc2)cnc2c1NCC1(CC1)O2 [Example 190, 4-((8′-methyl-1′,2′-dihydrospiro[cyclopropane-1,3′-pyrido[2,3-b][1,4]oxazin]-7′-yl)amino)-N-(4-(4-methylpiperazin-1-yl)phenyl)-2-oxo-1,2-dihydropyridine-3-carboxamide]	10 to 100 nM
Cc1c(Nc2cc[nH]c(=O)c2C(=O)Nc2ccc(N3CCN(C)CC3)c(C#N)c2)cnc2c1NCC(C)O2 (stereo not shown) [Example 191, N-(3-cyano-4-(4-methylpiperazin-1-yl)phenyl)-4-((3,8-dimethyl-2,3-dihydro-1H-pyrido[2,3-b][1,4]oxazin-7-yl)amino)-2-oxo-1,2-dihydropyridine-3-carboxamide]	10 to 100 nM
Cc1c(Nc2cc[nH]c(=O)c2C(=O)Nc2cnn(C3CCN(C)CC3)c2)cnc2c1NCC(C)O2 (stereo not shown) [Example 192, 4-((3,8-dimethyl-2,3-dihydro-1H-pyrido[2,3-b][1,4]oxazin-7-yl)amino)-N-(1-(1-methylpiperidin-4-yl)-1H-pyrazol-4-yl)-2-oxo-1,2-dihydropyridine-3-carboxamide]	10 to 100 nM
Cc1c(Nc2cc[nH]c(=O)c2C(=O)Nc2ccc(N3CCN(Cc4ccn[nH]4)CC3)cc2)cnc2c1NCC(C)O2 (stereo not shown) [Example 193, N-(4-(4-((1H-pyrazol-5-yl)methyl)piperazin-1-yl)phenyl)-4-((3,8-dimethyl-2,3-dihydro-1H-pyrido[2,3-b][1,4]oxazin-7-yl)amino)-2-oxo-1,2-dihydropyridine-3-carboxamide]	≤ 10 nM
Cc1cc(N2CCN(C)CC2)ccc1NC(=O)c1c(Nc2cnc3c(c2C)NCCO3)cc[nH]c1=O [Example 195, 4-((8-methyl-2,3-dihydro-1H-pyrido[2,3-b][1,4]oxazin-7-yl)amino)-N-(2-methyl-4-(4-methylpiperazin-1-yl)phenyl)-2-oxo-1,2-dihydropyridine-3-carboxamide]	100 to 1000 nM
Cc1c(Nc2cc[nH]c(=O)c2C(=O)Nc2ccc(N3CCN(C)CC3)c(C(F)(F)F)c2)cnc2c1NCC(C)O2 (stereo not shown) [Example 196, 4-((3,8-dimethyl-2,3-dihydro-1H-pyrido[2,3-b][1,4]oxazin-7-yl)amino)-N-(4-(4-methylpiperazin-1-yl)-3-(trifluoromethyl)phenyl)-2-oxo-1,2-dihydropyridine-3-carboxamide]	10 to 100 nM
COCC1CN(C)CCN1c1ccc(NC(=O)c2c(Nc3cnc4c(c3C)NCC(C)O4)cc[nH]c2=O)cc1 (stereo not shown) [Example 197, 4-((3,8-Dimethyl-2,3-dihydro-1H-pyrido[2,3-b][1,4]oxazin-7-yl)amino)-N-(4-(2-(methoxymethyl)-4-methylpiperazin-1-yl)phenyl)-2-oxo-1,2-dihydropyridine-3-carboxamide]	10 to 100 nM
Cc1c(Nc2cc[nH]c(=O)c2C(=O)Nc2ccc(N3CCN(C)CC3)cc2)cnc2c1NCC(F)O2 (stereo not shown) [Example 198, 4-((3-Fluoro-8-methyl-2,3-dihydro-1H-pyrido[2,3-b][1,4]oxazin-7-yl)amino)-N-(4-(4-methylpiperazin-1-yl)phenyl)-2-oxo-1,2-dihydropyridine-3-carboxamide]	10 to 100 nM

More lines, now with the values ahead:

IC50	Compound
10 to 100 nM	Cc1c(Nc2cc[nH]c(=O)c2C(=O)Nc2ccc(N3CCN(C)CC3)nc2)cnc2c1NCC(C)O2 (stereo not shown) [Example 199]
≤ 10 nM	Cc1cc(NC(=O)c2c(Nc3cnc4c(c3C)NCC(C)O4)cc[nH]c2=O)ccc1N1CCN(C)CC1 (stereo not shown) [Example 200, 4-((3,8-dimethyl-2,3-dihydro-1H-pyrido[2,3-b][1,4]oxazin-7-yl)amino)-N-(3-methyl-4-(4-methylpiperazin-1-yl)phenyl)-2-oxo-1,2-dihydropyridine-3-carboxamide]
10 to 100 nM	Cc1c(Nc2cc[nH]c(=O)c2C(=O)Nc2ccc(N3CCN4CCCC4C3)cc2)cnc2c1NCC(C)O2 (stereo not shown) [Example 201, 4-((3,8-dimethyl-2,3-dihydro-1H-pyrido[2,3-b][1,4]oxazin-7-yl)amino)-N-(4-(hexahydropyrrolo[1,2-a]pyrazin-2(1H)-yl)phenyl)-2-oxo-1,2-dihydropyridine-3-carboxamide]
10 to 100 nM	COCCN1CCC(c2ccc(NC(=O)c3c(Nc4cnc5c(c4C)NCCO5)cc[nH]c3=O)cc2)CC1 [Example 202, N-(4-(1-(2-methoxyethyl)piperidin-4-yl)phenyl)-4-((8-methyl-2,3-dihydro-1H-pyrido[2,3-b][1,4]oxazin-7-yl)amino)-2-oxo-1,2-dihydropyridine-3-carboxamide]
10 to 100 nM	COc1cc(NC(=O)c2c(Nc3cnc4c(c3C)NCC(C)O4)cc[nH]c2=O)ccc1N1CCN(C)CC1 (stereo not shown) [Example 203, 4-((3,8-dimethyl-2,3-dihydro-1H-pyrido[2,3-b][1,4]oxazin-7-yl)amino)-N-(3-methoxy-4-(4-methylpiperazin-1-yl)phenyl)-2-oxo-1,2-dihydropyridine-3-carboxamide]
10 to 100 nM	Cc1c(Nc2cc[nH]c(=O)c2C(=O)Nc2ccc(N3CCN(C)CC3)c(CO)c2)cnc2c1NCC(C)O2 (stereo not shown) [Example 204, 4-((3,8-dimethyl-2,3-dihydro-1H-pyrido[2,3-b][1,4]oxazin-7-yl)amino)-N-(3-(hydroxymethyl)-4-(4-methylpiperazin-1-yl)phenyl)-2-oxo-1,2-dihydropyridine-3-carboxamide]
10 to 100 nM	Cc1c(Nc2cc[nH]c(=O)c2C(=O)Nc2ccc(N3CCOCC3)cc2)cnc2c1NCCO2 [Example 205, 4-((8-methyl-2,3-dihydro-1H-pyrido[2,3-b][1,4]oxazin-7-yl)amino)-N-(4-morpholinophenyl)-2-oxo-1,2-dihydropyridine-3-carboxamide]
10 to 100 nM	Cc1c(Nc2cc[nH]c(=O)c2C(=O)Nc2ccc(CN3CCN(C)CC3)cc2)cnc2c1NCCO2 [Example 206, 4-((8-methyl-2,3-dihydro-1H-pyrido[2,3-b][1,4]oxazin-7-yl)amino)-N-(4-((4-methylpiperazin-1-yl)methyl)phenyl)-2-oxo-1,2-dihydropyridine-3-carboxamide]
10 to 100 nM	Cc1c(Nc2cc[nH]c(=O)c2C(=O)Nc2ccc(N3CCN(C)CC3)cc2F)cnc2c1NCCO2 [Example 207, N-(2-fluoro-4-(4-methylpiperazin-1-yl)phenyl)-4-((8-methyl-2,3-dihydro-1H-pyrido[2,3-b][1,4]oxazin-7-yl)amino)-2-oxo-1,2-dihydropyridine-3-carboxamide]
